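Where inhibition never reached the appropriate level, the endpoint shown equals the highest concentration tested. Otherwise, values were interpolated linearly from a five-concentration, 48-hour dose response in 96-well plates. The concentration for 50% growth inhibition is given as GI50.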 The source made the active and inactive calls. No stated cut-off is given here; in the data, active = GI50 up to about 1.1 µM and inactive = higher. Peptide text beside a SMILES is read from it.
Columns and labels:
Assay in all cases: growth of human tumour cells (NCI), 48 h
[1] = test system: HOP-62
[2] = test system: HT-29
[3] = test system: CCRF-CEM
[4] = test system: UACC-257
[5] = test system: U-251
[6] = test system: HCT-15
[7] = test system: SW-620
[8] = test system: SK-OV-3
[9] = test system: EKVX
[10] = test system: M19-MEL
[11] = test system: UACC-62
[12] = test system: SF-539
[13] = test system: RXF 393
[14] = test system: CAKI-1
[15] = test system: NCI-H460
[16] = test system: KM12
[17] = test system: HCT-116
[18] = test system: MCF7
[19] = test system: NCI/ADR-RES
[20] = test system: T47D

| SMILES | GI50 [1] | GI50 [2] | GI50 [3] | GI50 [4] | GI50 [5] | GI50 [6] | GI50 [7] | GI50 [8] | GI50 [9] | GI50 [10] | GI50 [11] | GI50 [12] | GI50 [13] | GI50 [14] | GI50 [15] | GI50 [16] | GI50 [17] | GI50 [18] | GI50 [19] | GI50 [20] |
| --- | --- | --- | --- | --- | --- | --- | --- | --- | --- | --- | --- | --- | --- | --- | --- | --- | --- | --- | --- | --- |
| C=C1C(=O)OC2CCCCC3OC3C12 (centres undefined) | 21.8 µM (inactive) | 14.4 µM (inactive) | 3.04 µM (inactive) | 13.4 µM (inactive) | 10.7 µM (inactive) | 6.9 µM | 4.06 µM (inactive) | 16.5 µM (inactive) | 16.9 µM (inactive) | 11.6 µM (inactive) | 3.56 µM (inactive) | 11.7 µM (inactive) | 13.4 µM (inactive) | 3.36 µM (inactive) | 14.8 µM (inactive) | 16.6 µM (inactive) | 2.99 µM (inactive) |  |  |  |
| O=C(Nc1ccc(Cl)cc1)c1cc([N+](=O)[O-])ccc1O | 2.49 µM (inactive) | 3.62 µM (inactive) | 2.64 µM (inactive) | 4.84 µM (inactive) | 3.27 µM (inactive) | 6.79 µM | 5.07 µM (inactive) | 4.69 µM (inactive) | 3.85 µM (inactive) | 3.52 µM (inactive) | 2.29 µM (inactive) | 3.34 µM (inactive) | 1.77 µM (inactive) | 4.02 µM (inactive) | 3.01 µM (inactive) | 4.68 µM (inactive) | 3.37 µM (inactive) |  |  |  |
| COc1cccc(/C=N\NC(=O)C(C)SC(C)C(=O)N/N=C/c2cccc(OC)c2)c1 (centres undefined) | 16 µM (inactive) | > 66.8 µM (inactive) | 31.9 µM (inactive) | 59.3 µM (inactive) | 18 µM (inactive) | > 100 µM | 57.8 µM (inactive) | 18.1 µM (inactive) | 27 µM (inactive) | > 63.4 µM (inactive) | > 54.2 µM (inactive) | > 89.1 µM (inactive) | 11.1 µM (inactive) | 34.3 µM (inactive) | 14.9 µM (inactive) | 31.5 µM (inactive) | 18.4 µM (inactive) |  |  |  |
| O=C1NC2(CCCCC2)C2CCCCC=C12 (centres undefined) | > 100 µM (inactive) | > 100 µM (inactive) | > 100 µM (inactive) | > 100 µM (inactive) | > 100 µM (inactive) | > 100 µM | > 100 µM (inactive) | > 100 µM (inactive) | > 100 µM (inactive) | > 100 µM (inactive) | > 100 µM (inactive) | > 100 µM (inactive) | > 100 µM (inactive) | > 100 µM (inactive) | > 100 µM (inactive) | > 100 µM (inactive) | > 100 µM (inactive) |  |  |  |
| C=C1C(=O)OC2CC3(C)OC3CC/C(C)=C/C(OC(C)=O)C12 (centres undefined) | 18.7 µM (inactive) | 4.15 µM (inactive) | 2.12 µM (inactive) | 9.64 µM (inactive) | 18.6 µM (inactive) | 5.57 µM | 1.72 µM (inactive) | 20 µM (inactive) | 16.9 µM (inactive) | 8.04 µM (inactive) | 9.89 µM (inactive) | 6.37 µM (inactive) | 4.79 µM (inactive) | 2.13 µM (inactive) | 15.4 µM (inactive) | 15.1 µM (inactive) | 4.05 µM (inactive) | 4.59 µM (inactive) | 11.3 µM (inactive) | 3.76 µM (inactive) |
| CC(C)CC(NC(=O)C(CC(C)C)NC(=O)C(Cc1c[nH]cn1)NC(=O)C(C)NC(=O)C(NC(=O)C(C)NC(=O)C(Cc1c[nH]c2ccccc12)NC(=O)C(CCC(=O)O)NC(=O)C(N)Cc1ccccc1)C(C)C)C(N)=O (centres undefined) (H-FEWAVAHLL-NH2; configuration not given here) | > 12.5 µM (inactive) | > 12.5 µM (inactive) | > 12.5 µM (inactive) | > 12.5 µM (inactive) | > 12.5 µM (inactive) | > 12.5 µM | > 12.5 µM (inactive) | > 12.5 µM (inactive) | > 12.5 µM (inactive) | > 100 µM (inactive) | > 12.5 µM (inactive) | > 12.5 µM (inactive) | > 12.5 µM (inactive) | > 12.5 µM (inactive) | > 12.5 µM (inactive) | > 12.5 µM (inactive) | > 12.5 µM (inactive) | > 12.5 µM (inactive) | > 12.5 µM (inactive) | > 12.5 µM (inactive) |
| N=C(N)N/N=C/c1oc(-c2ccc(S(=O)(=O)O)o2)c(-c2ccc(S(=O)(=O)O)o2)c1[N+](=O)[O-] | > 100 µM (inactive) | > 100 µM (inactive) | > 100 µM (inactive) | > 100 µM (inactive) | > 100 µM (inactive) | > 100 µM | > 100 µM (inactive) | > 100 µM (inactive) | > 100 µM (inactive) | > 100 µM (inactive) | > 100 µM (inactive) | > 100 µM (inactive) | > 100 µM (inactive) | > 100 µM (inactive) | > 100 µM (inactive) | > 100 µM (inactive) | > 100 µM (inactive) |  |  |  |
| O=Cc1c(O)c(C(=O)Nc2ccc3[nH]c(=O)[nH]c3c2)cc2ccccc12 | > 100 µM (inactive) | > 100 µM (inactive) | > 100 µM (inactive) | > 100 µM (inactive) | > 100 µM (inactive) | > 100 µM | > 100 µM (inactive) | > 100 µM (inactive) | > 100 µM (inactive) | > 100 µM (inactive) | > 100 µM (inactive) | > 100 µM (inactive) | > 100 µM (inactive) | > 100 µM (inactive) | > 100 µM (inactive) | > 100 µM (inactive) | > 100 µM (inactive) |  |  |  |
| Cc1ccc(NC(=O)C(=O)C(C(=O)c2ccc3ccccc3c2)C2OC(=O)c3ccccc32)c(C)c1 (centres undefined) | 6.12 µM (inactive) | 25.7 µM (inactive) | 8.55 µM (inactive) | 12.8 µM (inactive) | 3.64 µM (inactive) | 14.3 µM | 5.71 µM (inactive) | 12.5 µM (inactive) | 19.1 µM (inactive) | 6.38 µM (inactive) | 4.54 µM (inactive) | 4.84 µM (inactive) | 3.24 µM (inactive) | 6.68 µM (inactive) | 5.57 µM (inactive) | 16.4 µM (inactive) | 6.35 µM (inactive) |  |  |  |
| COC(=O)/C=C(/C(=O)OC)C1(C)c2cc(C(=O)OC)c(C(=O)OC)c(N)c2C(=N)N1c1ccccc1 (centres undefined) | 86.7 µM (inactive) | 16.7 µM (inactive) | 15.5 µM (inactive) | > 10 µM (inactive) | 20.1 µM (inactive) | 31.8 µM |  | 34 µM (inactive) | 27.1 µM (inactive) | 13.9 µM (inactive) | 24.6 µM (inactive) | 22.2 µM (inactive) | 17.1 µM (inactive) | 21.4 µM (inactive) | 39.5 µM (inactive) | 17.2 µM (inactive) | 15.8 µM (inactive) |  |  |  |
| CCOC(=O)c1cccc(=O)c(C(=O)OCC)c1 | 33.3 µM (inactive) | 58.2 µM (inactive) | 27.2 µM (inactive) | 57.8 µM (inactive) | 32.4 µM (inactive) | 40.3 µM | 50.2 µM (inactive) | > 100 µM (inactive) | > 100 µM (inactive) | 53.1 µM (inactive) | 34 µM (inactive) | 26.1 µM (inactive) | 36.2 µM (inactive) | 77.3 µM (inactive) | 80 µM (inactive) | 3.27 µM (inactive) | 28.4 µM (inactive) |  |  |  |
| O=C(O)C1OC(n2cc(F)c(=O)[nH]c2=O)CC1O (centres undefined) | 5.22 µM (inactive) | 63.8 µM (inactive) | 3.44 µM (inactive) | > 100 µM (inactive) | 35.2 µM (inactive) | 77.4 µM | > 86.5 µM (inactive) | > 94.8 µM (inactive) | > 82.8 µM (inactive) | > 83.2 µM (inactive) | 6.15 µM (inactive) | 1.87 µM (inactive) | > 87.9 µM (inactive) | > 39.5 µM (inactive) | 0.447 µM (active) | > 95.9 µM (inactive) | 23.1 µM (inactive) | 0.9 µM (active) | 13.2 µM (inactive) | > 100 µM (inactive) |
| CC(C)(C)c1cc(C#N)c2c(c1)C(=O)OC2(c1ccccc1)c1ccccc1C#N (centres undefined) | > 100 µM (inactive) | > 100 µM (inactive) | > 100 µM (inactive) | 87.7 µM (inactive) | > 100 µM (inactive) | 29.5 µM | > 100 µM (inactive) | > 100 µM (inactive) | > 100 µM (inactive) | > 100 µM (inactive) | > 100 µM (inactive) | > 100 µM (inactive) | > 100 µM (inactive) | > 100 µM (inactive) | > 100 µM (inactive) | 43 µM (inactive) | > 100 µM (inactive) |  |  |  |
